Test results reported in ChEMBL document CHEMBL1201862, “PubChem BioAssay data set” (2004).
Active and inactive are the calls of the source.

Tests used:
Protein skinhead-1 = target: T1, Protein skinhead-1 (Caenorhabditis elegans, UniProt P34707); type: functional
T1 sequence (P34707 whole entry): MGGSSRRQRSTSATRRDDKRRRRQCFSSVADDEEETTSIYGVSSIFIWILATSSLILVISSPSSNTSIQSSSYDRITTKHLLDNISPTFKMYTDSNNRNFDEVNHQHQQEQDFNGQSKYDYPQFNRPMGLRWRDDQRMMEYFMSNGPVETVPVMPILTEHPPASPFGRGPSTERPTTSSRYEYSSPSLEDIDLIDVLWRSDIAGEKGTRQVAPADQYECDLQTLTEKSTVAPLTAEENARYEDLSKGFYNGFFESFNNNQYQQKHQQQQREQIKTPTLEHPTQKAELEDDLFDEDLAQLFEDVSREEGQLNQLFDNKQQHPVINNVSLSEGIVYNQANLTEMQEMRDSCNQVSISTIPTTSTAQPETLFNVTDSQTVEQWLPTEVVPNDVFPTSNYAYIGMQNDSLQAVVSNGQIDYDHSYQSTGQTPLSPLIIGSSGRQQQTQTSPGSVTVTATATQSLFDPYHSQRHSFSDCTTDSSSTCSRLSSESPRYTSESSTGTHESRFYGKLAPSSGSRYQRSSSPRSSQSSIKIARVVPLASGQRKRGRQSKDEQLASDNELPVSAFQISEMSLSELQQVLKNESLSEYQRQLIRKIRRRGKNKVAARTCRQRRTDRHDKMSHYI

[1] = target: T2, Short transient receptor potential channel 4 (Mus musculus, UniProt Q9QUQ5); assay: mouse TRPC4 channel inhibitors, dose response, cell-based, HEK293 TRPC4/mu-opioid, Fluo-4 calcium (AID 434942); type: functional;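 further: potency of inhibitors blocking the TRPC4 calcium response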
T2 sequence (Q9QUQ5 whole entry): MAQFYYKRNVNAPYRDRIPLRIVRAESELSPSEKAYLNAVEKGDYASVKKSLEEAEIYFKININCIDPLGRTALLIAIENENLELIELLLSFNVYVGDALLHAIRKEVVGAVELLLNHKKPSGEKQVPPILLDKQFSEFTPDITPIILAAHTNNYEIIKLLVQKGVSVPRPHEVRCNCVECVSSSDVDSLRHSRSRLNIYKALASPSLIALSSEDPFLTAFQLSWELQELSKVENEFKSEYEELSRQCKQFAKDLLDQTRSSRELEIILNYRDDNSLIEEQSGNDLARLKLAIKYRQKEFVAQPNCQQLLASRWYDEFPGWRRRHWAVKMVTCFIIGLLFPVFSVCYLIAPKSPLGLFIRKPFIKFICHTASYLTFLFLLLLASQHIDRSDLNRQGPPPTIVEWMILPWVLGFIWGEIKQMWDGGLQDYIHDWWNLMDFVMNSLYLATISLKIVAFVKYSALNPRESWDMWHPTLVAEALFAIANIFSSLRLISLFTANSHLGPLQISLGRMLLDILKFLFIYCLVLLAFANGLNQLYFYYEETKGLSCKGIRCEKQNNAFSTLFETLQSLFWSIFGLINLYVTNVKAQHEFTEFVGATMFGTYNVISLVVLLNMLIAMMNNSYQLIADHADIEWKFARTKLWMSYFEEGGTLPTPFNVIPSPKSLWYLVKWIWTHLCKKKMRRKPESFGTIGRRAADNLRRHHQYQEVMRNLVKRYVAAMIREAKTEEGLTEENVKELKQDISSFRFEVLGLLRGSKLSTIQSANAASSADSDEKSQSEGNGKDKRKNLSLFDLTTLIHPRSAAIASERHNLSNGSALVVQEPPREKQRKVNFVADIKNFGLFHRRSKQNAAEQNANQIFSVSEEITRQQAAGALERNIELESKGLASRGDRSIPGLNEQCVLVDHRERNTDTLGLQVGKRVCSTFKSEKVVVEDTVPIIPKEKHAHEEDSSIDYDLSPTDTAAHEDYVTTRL

Coagulation factor XII = target: T3, Coagulation factor XII (Homo sapiens, UniProt P00748); type: functional;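 further: activated factor XIIa alpha cleaving a fluorogenic AMC peptide substrate; inhibitor potency from loss of enzyme activity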
T3 sequence (P00748 whole entry): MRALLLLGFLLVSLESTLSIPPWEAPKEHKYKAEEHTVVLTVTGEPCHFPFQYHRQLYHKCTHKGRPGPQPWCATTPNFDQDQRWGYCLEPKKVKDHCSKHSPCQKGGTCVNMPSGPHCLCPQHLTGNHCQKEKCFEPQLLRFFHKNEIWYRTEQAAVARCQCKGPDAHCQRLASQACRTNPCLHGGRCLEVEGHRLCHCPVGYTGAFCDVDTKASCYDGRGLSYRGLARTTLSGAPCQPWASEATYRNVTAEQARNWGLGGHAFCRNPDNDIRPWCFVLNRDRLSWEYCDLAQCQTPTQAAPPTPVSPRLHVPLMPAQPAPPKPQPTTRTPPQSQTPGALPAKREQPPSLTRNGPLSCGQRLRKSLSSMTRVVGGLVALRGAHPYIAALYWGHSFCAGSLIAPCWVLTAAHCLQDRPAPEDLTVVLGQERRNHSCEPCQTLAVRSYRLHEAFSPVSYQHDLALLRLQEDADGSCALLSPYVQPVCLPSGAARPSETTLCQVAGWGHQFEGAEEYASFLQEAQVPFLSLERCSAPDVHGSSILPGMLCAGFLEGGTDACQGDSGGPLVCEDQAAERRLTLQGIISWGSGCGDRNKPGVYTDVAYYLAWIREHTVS

[2] = inhibitors of HIV Env-driven cell fusion, dose response, cherry-pick (AID 652057); type: functional, cell-based
[3] = ZM109 Env clade C HIV-1 fusion inhibitors, dose response, HeLa effector, CEM target cells, luciferase, cherry-pick (AID 652058); type: functional, cell-based
[4] = off-target signal loss in HeLa-CEM21 co-culture – HeLa F-luc CTL cells, cherry-picked, counter-screen for HIV-1 Env fusion inhibitor project, dose response (AID 652040); type: functional, cell-based;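 further: potency for signal decrease marking cytotoxic or nonspecific inhibition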
[5] = inhibitors of clade B AD8 Env fusion, dose response, cell-based, cherry-pick (AID 652062); type: functional;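 further: luciferase signal from cell-cell fusion driven by HIV-1 clade B AD8 Env; potency is for inhibitors of fusion seen as a drop in luminescence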
[6] = target: Peroxisome proliferator-activated receptor gamma/Nuclear receptor coactivator 2 (Homo sapiens, UniProt P37231); type: functional;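 further: agonist potency for raising coactivator recruitment to the receptor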
[7] = target: Peroxisome proliferator-activated receptor gamma/Nuclear receptor coactivator 1 (Homo sapiens, UniProt P37231); type: functional;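 further: agonist potency as compounds enhance coactivator SRC-1 recruitment to PPARgamma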
[8] = target: Peroxisome proliferator-activated receptor gamma/Nuclear receptor coactivator 3 (Homo sapiens, UniProt P37231); type: functional;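 further: agonist potency for raising coactivator recruitment to the receptor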
Aminopeptidase N = target: T4, Aminopeptidase N (Plasmodium falciparum FcB1/Columbia, UniProt O96935); assay: P. falciparum M1AAP inhibitors, biochemical, fluorogenic H-Leu-NHMec substrate, 1536-well (AID 1445); design: species or system Plasmodium falciparum 3D7, 3D7
T4 sequence (O96935 whole entry): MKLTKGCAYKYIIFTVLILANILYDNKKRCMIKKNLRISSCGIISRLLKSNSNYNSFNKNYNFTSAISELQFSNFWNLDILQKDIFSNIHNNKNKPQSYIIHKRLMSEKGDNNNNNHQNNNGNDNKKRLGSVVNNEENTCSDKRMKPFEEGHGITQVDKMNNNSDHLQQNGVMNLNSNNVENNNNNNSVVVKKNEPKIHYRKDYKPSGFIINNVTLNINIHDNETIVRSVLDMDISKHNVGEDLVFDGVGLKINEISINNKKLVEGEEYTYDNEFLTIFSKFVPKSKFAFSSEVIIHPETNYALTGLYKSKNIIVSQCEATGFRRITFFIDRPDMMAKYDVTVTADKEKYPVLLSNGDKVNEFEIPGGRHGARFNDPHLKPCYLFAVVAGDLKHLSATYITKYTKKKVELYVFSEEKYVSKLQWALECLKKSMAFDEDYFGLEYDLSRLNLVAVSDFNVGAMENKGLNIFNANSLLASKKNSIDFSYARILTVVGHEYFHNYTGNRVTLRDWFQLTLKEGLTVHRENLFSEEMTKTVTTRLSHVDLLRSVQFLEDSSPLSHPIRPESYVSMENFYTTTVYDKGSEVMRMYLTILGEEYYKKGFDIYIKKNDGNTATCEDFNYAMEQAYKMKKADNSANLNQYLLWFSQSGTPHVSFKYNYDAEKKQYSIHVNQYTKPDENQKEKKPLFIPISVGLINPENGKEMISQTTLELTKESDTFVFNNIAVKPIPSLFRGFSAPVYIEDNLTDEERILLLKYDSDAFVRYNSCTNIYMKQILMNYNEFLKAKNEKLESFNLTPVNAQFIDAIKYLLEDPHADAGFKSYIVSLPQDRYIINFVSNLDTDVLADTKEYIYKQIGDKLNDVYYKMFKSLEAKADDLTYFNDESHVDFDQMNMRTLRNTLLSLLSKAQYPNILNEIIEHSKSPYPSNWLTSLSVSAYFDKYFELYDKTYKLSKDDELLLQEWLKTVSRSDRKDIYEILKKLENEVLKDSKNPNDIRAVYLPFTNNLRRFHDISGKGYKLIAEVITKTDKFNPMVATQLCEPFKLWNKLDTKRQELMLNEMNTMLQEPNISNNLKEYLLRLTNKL

BJ [9] = assay: cytotoxicity toward BJ-TERT fibroblasts, dose response, cell-based, RAS-independent, luminescence (AID 1933); type: functional; conditions: Homo sapiens
BJ [10] = assay: cells; type: functional, cell-based; conditions: Homo sapiens
BJ [11] = assay: cytotoxicity toward BJ-TERT-LT-ST fibroblasts, dose response, cell-based, RAS-independent, luminescence (AID 1935); type: functional; conditions: Homo sapiens;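 further: BJ fibroblasts immortalized with TERT plus LT and ST oncogenes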
[12] = cytotoxicity toward DRD oncogenic fibroblasts, dose response, cell-based, non-viral oncogenic, luminescence (AID 1934); type: functional; conditions: Homo sapiens

Chain of Peroxisome proliferator-activated receptor gamma/Nuclear receptor coactivator 1 (P37231 whole entry): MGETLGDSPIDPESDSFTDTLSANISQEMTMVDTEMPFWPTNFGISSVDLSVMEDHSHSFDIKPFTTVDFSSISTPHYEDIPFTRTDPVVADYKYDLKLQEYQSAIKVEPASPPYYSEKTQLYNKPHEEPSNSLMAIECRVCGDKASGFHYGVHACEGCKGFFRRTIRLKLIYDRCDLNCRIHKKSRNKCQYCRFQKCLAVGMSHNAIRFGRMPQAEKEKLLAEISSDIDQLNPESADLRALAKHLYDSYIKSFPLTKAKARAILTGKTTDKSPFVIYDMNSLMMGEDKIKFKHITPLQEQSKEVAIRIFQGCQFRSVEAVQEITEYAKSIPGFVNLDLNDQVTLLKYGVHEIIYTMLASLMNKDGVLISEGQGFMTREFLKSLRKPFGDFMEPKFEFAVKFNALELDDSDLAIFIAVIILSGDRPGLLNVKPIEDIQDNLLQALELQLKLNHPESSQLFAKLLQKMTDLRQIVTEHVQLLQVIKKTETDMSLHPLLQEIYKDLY
Chain of Peroxisome proliferator-activated receptor gamma/Nuclear receptor coactivator 1 (Q15788 whole entry, further chain): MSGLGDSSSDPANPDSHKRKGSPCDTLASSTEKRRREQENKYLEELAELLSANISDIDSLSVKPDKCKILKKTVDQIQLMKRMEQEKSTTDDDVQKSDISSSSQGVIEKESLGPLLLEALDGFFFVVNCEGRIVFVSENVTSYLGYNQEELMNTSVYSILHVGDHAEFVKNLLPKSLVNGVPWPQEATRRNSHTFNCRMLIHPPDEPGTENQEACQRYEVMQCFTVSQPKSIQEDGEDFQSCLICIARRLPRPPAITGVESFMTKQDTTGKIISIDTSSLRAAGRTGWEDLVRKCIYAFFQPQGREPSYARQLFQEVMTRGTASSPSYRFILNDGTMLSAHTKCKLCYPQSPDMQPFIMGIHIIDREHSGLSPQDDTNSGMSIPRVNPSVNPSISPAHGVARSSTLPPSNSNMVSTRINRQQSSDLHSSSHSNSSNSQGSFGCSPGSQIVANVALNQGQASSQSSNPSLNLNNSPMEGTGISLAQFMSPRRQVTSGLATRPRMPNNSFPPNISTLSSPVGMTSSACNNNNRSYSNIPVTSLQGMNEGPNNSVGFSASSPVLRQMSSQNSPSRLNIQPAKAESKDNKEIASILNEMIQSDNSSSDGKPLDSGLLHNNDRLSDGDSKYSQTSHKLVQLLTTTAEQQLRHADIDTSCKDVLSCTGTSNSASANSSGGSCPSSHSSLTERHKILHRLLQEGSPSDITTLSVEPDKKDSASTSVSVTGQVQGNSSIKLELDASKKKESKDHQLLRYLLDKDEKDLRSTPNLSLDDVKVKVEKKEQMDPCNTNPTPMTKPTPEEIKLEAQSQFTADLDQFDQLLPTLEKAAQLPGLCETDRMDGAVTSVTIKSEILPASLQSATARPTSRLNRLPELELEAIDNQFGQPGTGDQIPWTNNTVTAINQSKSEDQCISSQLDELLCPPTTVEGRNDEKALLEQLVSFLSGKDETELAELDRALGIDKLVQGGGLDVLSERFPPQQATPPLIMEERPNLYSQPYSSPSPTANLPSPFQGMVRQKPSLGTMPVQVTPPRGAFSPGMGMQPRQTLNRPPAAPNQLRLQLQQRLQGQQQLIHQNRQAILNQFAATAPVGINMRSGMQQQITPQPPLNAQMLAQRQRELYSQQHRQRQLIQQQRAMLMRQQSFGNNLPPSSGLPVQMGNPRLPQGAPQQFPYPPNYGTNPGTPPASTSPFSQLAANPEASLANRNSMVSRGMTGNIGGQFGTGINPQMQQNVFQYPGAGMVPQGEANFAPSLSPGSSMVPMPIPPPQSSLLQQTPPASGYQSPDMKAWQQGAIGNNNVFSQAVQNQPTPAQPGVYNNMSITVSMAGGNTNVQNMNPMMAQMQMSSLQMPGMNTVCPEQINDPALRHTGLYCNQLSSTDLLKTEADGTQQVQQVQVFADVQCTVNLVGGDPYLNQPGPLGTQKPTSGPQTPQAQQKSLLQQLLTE
Chain of Peroxisome proliferator-activated receptor gamma/Nuclear receptor coactivator 3 (P37231 whole entry): as the sequence (P37231 whole entry) above
Chain of Peroxisome proliferator-activated receptor gamma/Nuclear receptor coactivator 3 (Q9Y6Q9 whole entry, further chain): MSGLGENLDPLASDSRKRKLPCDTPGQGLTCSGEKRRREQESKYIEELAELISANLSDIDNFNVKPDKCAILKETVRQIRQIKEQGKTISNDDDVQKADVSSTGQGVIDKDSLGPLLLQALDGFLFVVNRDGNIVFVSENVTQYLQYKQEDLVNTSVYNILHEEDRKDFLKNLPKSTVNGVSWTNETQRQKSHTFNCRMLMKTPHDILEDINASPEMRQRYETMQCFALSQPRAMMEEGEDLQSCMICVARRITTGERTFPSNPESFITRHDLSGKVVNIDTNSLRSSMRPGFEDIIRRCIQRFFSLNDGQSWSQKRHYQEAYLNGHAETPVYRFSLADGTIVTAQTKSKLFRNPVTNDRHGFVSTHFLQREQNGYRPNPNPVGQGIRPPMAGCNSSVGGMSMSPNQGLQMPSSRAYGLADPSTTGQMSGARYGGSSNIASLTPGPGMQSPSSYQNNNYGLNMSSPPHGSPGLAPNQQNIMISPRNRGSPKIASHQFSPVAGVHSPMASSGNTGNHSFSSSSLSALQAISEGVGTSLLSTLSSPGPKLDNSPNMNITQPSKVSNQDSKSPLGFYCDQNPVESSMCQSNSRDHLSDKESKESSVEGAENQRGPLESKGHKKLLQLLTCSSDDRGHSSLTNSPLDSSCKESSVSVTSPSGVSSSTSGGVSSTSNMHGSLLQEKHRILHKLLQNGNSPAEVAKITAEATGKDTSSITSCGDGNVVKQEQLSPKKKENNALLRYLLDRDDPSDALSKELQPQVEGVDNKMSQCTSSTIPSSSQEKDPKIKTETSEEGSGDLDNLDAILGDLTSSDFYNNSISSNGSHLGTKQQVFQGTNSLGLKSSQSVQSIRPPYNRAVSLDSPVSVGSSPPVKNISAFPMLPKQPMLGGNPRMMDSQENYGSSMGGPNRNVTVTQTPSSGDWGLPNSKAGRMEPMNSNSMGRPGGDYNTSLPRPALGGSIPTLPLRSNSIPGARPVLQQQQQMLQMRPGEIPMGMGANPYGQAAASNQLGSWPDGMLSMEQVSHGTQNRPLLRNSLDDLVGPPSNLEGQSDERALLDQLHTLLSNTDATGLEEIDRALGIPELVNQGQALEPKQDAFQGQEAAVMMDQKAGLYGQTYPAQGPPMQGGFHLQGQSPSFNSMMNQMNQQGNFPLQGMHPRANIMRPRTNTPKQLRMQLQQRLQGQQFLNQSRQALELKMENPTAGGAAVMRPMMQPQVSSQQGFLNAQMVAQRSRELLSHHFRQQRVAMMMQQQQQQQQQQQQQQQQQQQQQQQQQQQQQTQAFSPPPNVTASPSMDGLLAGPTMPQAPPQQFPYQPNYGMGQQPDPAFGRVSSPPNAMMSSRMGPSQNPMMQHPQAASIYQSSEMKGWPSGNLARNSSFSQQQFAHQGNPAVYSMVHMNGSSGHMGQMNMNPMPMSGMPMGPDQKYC

Compound: CC(=O)Nc1cc(NC(C)=O)cc(C(=O)OCC(=O)N2CC(C)OC(C)C2)c1 (stereo not given)
- IC50 (Protein skinhead-1): > 100 µM (inactive)

Compound: Clc1ccc(CSc2ccc(-c3cccnc3)nn2)cc1
- IC50 (Protein skinhead-1): 83.9 µM (inactive)

Compound: Cc1ccc(-n2cccn2)c(CN2CCCC(C(=O)c3ccc4c(c3)OCO4)C2)c1 (stereo not given)
- EC50 [1]: 7.5 µM (active)

Compound: FCCCOc1ccc(-c2ccnc(-c3ccccc3)n2)cc1
- IC50 (Protein skinhead-1): 52.3 µM (inactive)

Compound: CCc1nnc(NC(=O)CCC(=O)N2CCN(CCOc3ccc(C)cc3)CC2)s1
- IC50 (Coagulation factor XII): > 50 µM (inactive)

Compound: O=C(Nc1ccc(F)cc1)C1CCCN1S(=O)(=O)c1ccc(Br)cc1 (stereo not given)
- AC50 [2]: 7.75 µM (active)
- AC50 [3]: 6.89 µM (active)
- AC50 [4]: 14.5 µM (active)
- AC50 [5]: 16.3 µM (active)

Compound: COc1ccc(Cl)cc1N=C(S)NNC(=O)C1(C)CC1(Cl)Cl (stereo not given)
- IC50 (Coagulation factor XII): > 50 µM (inactive)

Compound: COc1cccc(C2=NN(C(=O)c3ccco3)C(c3ccco3)C2)c1 (stereo not given)
- EC50 [1]: 1.88 µM (active)

Compound: COc1ccc(C2CC(=O)c3c([nH]c(C(=O)OC(C)C)c3C)C2)cc1OC (stereo not given)
- EC50 [6]: > 79.4 µM (not active)
- EC50 [7]: > 79.4 µM (not active)
- EC50 [8]: > 79.4 µM (not active)

Compound: CC1=CN2C(=N)/C(=C/c3cc(Cl)c(O)c(Cl)c3)C(=O)N=C2S1
- IC50 (Aminopeptidase N): 42 µM (active)

Compound: O=C1c2cccnc2C(Nc2ccc(S(=O)(=O)N3CCCCC3)cc2)N1Cc1ccccc1 (stereo not given)
- AC50 [2]: 7.23 µM (active)
- AC50 [4]: 58.9 µM (active)

Compound: CC(C)(C)n1nnnc1C(c1cccs1)N(Cc1cccnc1)Cc1ccco1 (stereo not given)
- AC50 [2]: 3.99 µM (active)
- AC50 [3]: 4.74 µM (active)
- AC50 [4]: 15.2 µM (active)
- AC50 [5]: 7.08 µM (active)

Compound: COc1ccc(C(=O)c2cc([N+](=O)[O-])ccc2N2CCCC2)cc1
- EC50 (BJ [9]): 13 µM (active)
- EC50 (BJ [10]): 58.2 µM (active)
- EC50 (BJ [11]): 3.87 µM (inconclusive)
- EC50 [12]: 3.06 µM (active)
